# Reference: PMC9497102, “Thiosemicarbazone Derivatives Developed to Overcome COTI-2 Resistance” (Cancers, 2022)
# Legend:
# [1] = tested on: SW480 cells; assay: Mitotic nuclei by DAPI staining; type: cell-based, human; conditions: 24 h
# Procedure: In order to detect mitotic nuclei, fixed cells were stained with DAPI. SW480 and SW480/Coti cells were seeded at a density of 2 × 10^5 cells per well in 6-well plates and left to recover for 24 h. This was followed by drug treatment at the indicated concentrations for 24 h. Then, cells were collected and spun on slides by centrifugation with a Thermo Scientific Cytospin 4 (400 rpm, 5 min at 4 °C). The slides were dried, and the cells were fixed with a methanol/acetone (1:1) mixture at −20 °C and stained with a solution containing DAPI (1 µg/mL). A final washing step with phosphate-buffered saline (PBS) was performed, followed by covering the slides with vectashield (H-100, Vector Laboratories, Inc., Newark, CA, USA) and coverslips. Mitotic nuclei were counted with Image J in three different areas per slide from three independent experiments.
# [2] = Spectrophotometric redox reaction of copper(II) complexes with GSH or AA; type: physicochemical; conditions: 300 equiv. GSH, pH 7.4, after formation of mixed-ligand GSH adduct
# Procedure: A Hewlett Packard 8452A diode array spectrophotometer and a special, tightly closed tandem cuvette (Hellma Tandem Cell, 238-QS) were used to monitor the redox reactions of the Cu(II) and Fe(III) complexes with GSH and AA. The spectra were recorded at a physiological pH (pH = 7.4, 50 mM HEPES, I = 0.1 M KCl) when the metal complexes:GSH or AA ratio was 1:300 (ccomplex = 30 μM, cGSH or AA = 9 mM). The stock solutions of the complexes and the GSH and AA solutions were freshly prepared before every measurement. In the first half of the cuvette, the ligand was mixed with the complex, and the other contained the reducing agent. Both isolated parts of the cuvette were deoxygenated with argon for 10 min. The first spectrum was recorded before mixing, and then after mixing, the reduction was usually followed until no further absorbance change was observed.
# [3] = tested on: SW480 cells; assay: Cell cycle analysis by PI staining and flow cytometry; type: cell-based, human; conditions: 24 h
# Procedure: The cell cycle phases were analyzed by staining the DNA of ethanol-fixed cells with PI, as previously described. SW480 and SW480/Coti cells were seeded at a density of, 2 × 10^5 cells/well in 6-well plates and treated with the indicated concentrations of COTI-2 and COTI-NMe2 for 24 h. Then, cells were collected by trypsinization and fixed in cold 70% ethanol. In order to digest RNA, the cells were treated with RNase (0.2 mg/mL, Sigma) and, subsequently, DNA was stained with PI (1 µg/mL). Fluorescence was measured by flow cytometry (FACS Calibur, Becton Dickinson, Ashland, CA, USA) and cell cycle phases were analyzed using Cell Quest Pro software.
# [4] = tested on: GLC-4/adr cells (ABCC1-overexpressing); assay: MTT viability assay, 72 h; type: cell-based
# Procedure: (§1) In vitro tests were performed with human colorectal cancer SW480 cells (purchased from the American Type Culture Collection, Manassas, VA, USA), SW480/Tria, and the SW480/Coti cells, which are previously established sublines that are resistant to Triapine and COTI-2 [16], respectively. Additionally, small-cell lung carcinoma GLC-4 and its subline GLC-4/adr, which is a doxorubicin-resistant subline overexpressing ABCC1 (purchased from Dr. […], Groningen, The Netherlands), were used. All cells were maintained in a humidified 5% CO2 incubator at 37 °C and grown in minimal essential medium or RPMI-1640, respectively, supplemented with 10% fetal bovine serum (FBS). In order to maintain the resistant phenotype of GLC-4/adr cells, they were selected with doxorubicin (1152 nM) once a month. All cell lines were tested for mycoplasma contamination. For the cytotoxicity, cell viability, and proliferation studies, the 3-(4,5-dimethylthiazol-2-yl)-2,5-diphenyltetrazolium bromide (MTT) assay was utilized. Cells were seeded in 96-well plates at a density of 2 × 10^4 cells/well, with the exception of SW480/Tria, which was used at a density of 3 × 10^4 cells/well. After 24 h of recovery, cells were treated with the indicated concentration of drugs. For the drug combination experiments, verapamil and cyclosporine A (CSA) were used as ABCC1 modulators, and tetrathiomolybdate (TTM) was used as a copper chelator. The TSCs were dissolved in DMSO followed by subsequent dilutions in the medium in order to maintain a final DMSO concentration of <1%. After 72 h, the treatment solution was removed and replaced with 100 μL of MTT solution (EZ4U, Biomedica, Vienna, Austria), which was diluted 1:10 in the growth medium. A TECAN Infinite 200 Pro plate reader was used to measure the absorbance of the solution after 2-3 h incubation at 5% CO2 in an incubator at 37 °C. The anticancer activity was determined with GraphPad Prism software and indicated as IC50 values (half maximum inhibitory concentration).
# [5] = tested on: GLC-4 cells; assay: MTT viability assay, 72 h; type: cell-based; conditions: Homo sapiens, GLC4
# Procedure: as §1
# [6] = tested on: SW480/Tria cells; assay: MTT viability assay, 72 h; type: cell-based, human; conditions: for IC50: Homo sapiens, SW480, 72 h, MTT; for Relative Resistance SW480/Tria: IC50 of resistant subline divided by IC50 of parental SW480
# Procedure: as §1
# [7] = tested on: SW480 cells; assay: MTT viability assay, 72 h; type: cell-based, human; conditions: for IC50: Homo sapiens, SW480, MTT; for enhancement of cytotoxicity by copper complexation: copper complex vs. ligand
# Procedure: as §1
# [8] = tested on: SW480/Coti cells; assay: MTT viability assay, 72 h; type: cell-based, human; conditions: for IC50: Homo sapiens, SW480, 72 h, MTT
# Procedure: as §1
SMILES,effect on mitotic cell fraction [1],redox reaction of the copper(II) complex with GSH [2],effect on G2/M population [3],IC50 [4],IC50 [5],IC50 [6],Relative Resistance SW480/Tria [6],IC50 ([7]; 72 h),lower IC50 value than the other tested COTI-2 derivatives ([7]; SW480 cells),"lower IC50 value than COTI-2 ([7]; SW480 cells, 72 h)",IC50 [8],Relative Resistance SW480/Coti ([8]; IC50 of resistant subline divided by IC50 of parental SW480),"enhancement of cytotoxicity by copper complexation ([7]; SW480 cells, 72 h)"
"CN(C)C(=S)NN=C1CCCc2cccnc21 (mixture of isomers) [COTI-NMe2, 2-(6,7-Dihydroquinolin-8(5H)-ylidene)-N^4,N^4-dimethylhydrazine-1-carbothioamide]",(complete) loss of the mitotic cell fraction,no measurable spectral changes were seen,significant reduction in the G2/M population,60 ± 30 nM,30 ± 30 nM,40 ± 20 nM,1.0 ^n.s.,40 ± 10 nM,~ 10 fold,11 fold,50 ± 30 nM,1.3 ^n.s.,
"S=C(N/N=C1\CCCc2cccnc21)N1CCN(c2ccccn2)CC1 [COTI-2, 4-(pyridine-2-yl)-N-([(8E)-5,6,7,8-tetrahydroquinolin-8-ylidene]amino)piperazine-1-carbothioamide]",(complete) loss of the mitotic cell fraction,,significant reduction in the G2/M population,,,,1.1 ^n.s.,370 ± 170 nM,,,,,7–8 fold
"CN(C(=S)N/N=C1\CCCc2cccnc21)C1CCCCC1 [COTI-NMeCy, N-Cyclohexyl-2-(6,7-dihydroquinolin-8(5H)-ylidene)-N^4-methylhydrazine-1-carbothioamide]",,no measurable spectral changes were seen,,540 ± 150 nM,170 ± 100 nM,710 ± 170 nM,1.1 ^n.s.,640 ± 100 nM,,,3980 ± 400 nM,,7–8 fold
